Legend:
A549 = assay: Cytotoxicity against human A549 cells by MTT assay; format: functional, cell-based
[1] = Cytotoxicity against human BGC-7901 cells by MTT assay; format: functional, cell-based
SW480 = assay: Cytotoxicity against human SW480 cells by MTT assay; format: functional, cell-based
HL-60 = assay: Cytotoxicity against human HL60 cells by MTT assay; format: functional, cell-based
Bel-7402 = assay: Cytotoxicity against human BEL-7402 cells by MTT assay; format: functional, cell-based
B16 [2] = assay: Cytotoxicity against mouse B16 cells by MTT assay; format: functional, cell-based
H22 [3] = assay: Antitumor activity in mouse H22 cell xenografted mouse at 20 mg/kg/day, ip after 4 days; format: functional; conditions: 96 h, route intraperitoneal
B16 [4] = assay: Antitumor activity in mouse B16 cell xenografted mouse at 20 mg/kg/day, ip after 4 days; format: functional; conditions: 96 h, route intraperitoneal
H22 [5] = assay: Antitumor activity in mouse H22 cell xenografted mouse at 20 mg/kg/day, iv after 4 days; conditions: 96 h, read-out: INH
B16 [6] = assay: Antitumor activity in mouse B16 cell xenografted mouse at 20 mg/kg/day, iv after 4 days; format: functional; conditions: B16, 96 h

Compound | IC50 (A549) | IC50 [1] | IC50 (SW480) | IC50 (HL-60) | IC50 (Bel-7402; read-out: IC50) | IC50 (B16 [2]) | inhibition in vivo at 20 mg/kg/day (H22 [3]) | inhibition in vivo at 20 mg/kg/day (B16 [4]) | inhibition in vivo at 20 mg/kg/day (H22 [5]) | IC50 (Bel-7402) | inhibition in vivo at 20 mg/kg/day (B16 [6])
C=C1C(=O)[C@]23[C@H](OC(=O)C(Cc4ccccc4)NC(=O)/C=C/C(=O)O)[C@@H]1CC[C@H]2[C@@]12CO[C@]3(O)[C@@H](O)[C@@H]1C(C)(C)CCC2=O (stereo partly specified) | 3.46 µM | 3.02 µM | 2.89 µM | 2.07 µM | 1 µM | 8.22 µM | 62.5% | 61.2% | – | – | –
C=C1C(=O)[C@]23[C@H](OC(=O)C(Cc4ccccc4)NC(=O)CCCCC(=O)O)[C@@H]1CC[C@H]2[C@@]12CO[C@]3(O)[C@@H](O)[C@@H]1C(C)(C)CCC2=O (stereo partly specified) | 8.06 µM | 7.05 µM | 7.3 µM | 6.24 µM | 12.8 µM | 13.9 µM | – | – | – | – | –
C=C1C(=O)[C@]23[C@H](OC(=O)CNC(=O)CCC(=O)O)[C@@H]1CC[C@H]2[C@@]12CO[C@]3(O)[C@@H](O)[C@@H]1C(C)(C)CCC2=O | 11.5 µM | 15.6 µM | 10.2 µM | 7.76 µM | 2.09 µM | 8.57 µM | – | – | – | – | –
C=C1C(=O)[C@]23[C@H](OC(=O)C(N)Cc4ccccc4)[C@@H]1CC[C@H]2[C@@]12CO[C@]3(O)[C@@H](O)[C@@H]1C(C)(C)CCC2=O (stereo partly specified) | 22.2 µM | 10.5 µM | 15 µM | 27.5 µM | 29.6 µM | 10.2 µM | – | – | – | – | –
C=C1C(=O)[C@]23[C@H](OC(=O)CN)[C@@H]1CC[C@H]2[C@@]12CO[C@]3(O)[C@@H](O)[C@@H]1C(C)(C)CC[C@@H]2OC(C)=O | 11 µM | 18.2 µM | 22.3 µM | 12.3 µM | 17.9 µM | 12.4 µM | – | – | – | – | –
C=C1C(=O)[C@]23[C@H](OC(=O)CNC(=O)c4ccccc4C(=O)O)[C@@H]1CC[C@H]2[C@@]12CO[C@]3(O)[C@@H](O)[C@@H]1C(C)(C)CC[C@@H]2OS(=O)(=O)CCC | 22.7 µM | 20.9 µM | 25.4 µM | 13.8 µM | 39.1 µM | 17.6 µM | – | – | – | – | –
C=C1C(=O)[C@]23[C@H](OC(=O)CNC(=O)CCCCC(=O)O)[C@@H]1CC[C@H]2[C@@]12CO[C@]3(O)[C@@H](O)[C@@H]1C(C)(C)CC[C@@H]2OS(=O)(=O)CCC | 14 µM | 15.3 µM | 11.2 µM | 9.5 µM | 24.8 µM | 13 µM | – | – | – | – | –
C=C1C(=O)[C@]23[C@H](OC(=O)CNC(=O)CCCCC(=O)O)[C@@H]1CC[C@H]2[C@@]12CO[C@]3(O)[C@@H](O)[C@@H]1C(C)(C)CCC2=O | 7.47 µM | 15.1 µM | 10.2 µM | 8.65 µM | 13.8 µM | 16.4 µM | – | – | – | – | –
C=C1C(=O)[C@]23[C@H](OC(=O)C(Cc4ccccc4)NC(=O)CCC(=O)O)[C@@H]1CC[C@H]2[C@@]12CO[C@]3(O)[C@@H](O)[C@@H]1C(C)(C)CCC2=O (stereo partly specified) | 17.1 µM | 5.96 µM | 12.9 µM | 2.31 µM | 6.5 µM | 14.8 µM | 59.1% | 56.6% | – | – | –
C=C1C(=O)[C@]23[C@H](OC(=O)CNC(=O)CCCCC(=O)O)[C@@H]1CC[C@H]2[C@@]12CO[C@]3(O)[C@@H](O)[C@@H]1C(C)(C)CC[C@@H]2OC(C)=O | 10.5 µM | 13.2 µM | 10.7 µM | 5.3 µM | 8.26 µM | 12.5 µM | – | – | – | – | –
C=C1C(=O)[C@]23[C@H](OC(=O)CNC(=O)/C=C/C(=O)O)[C@@H]1CC[C@H]2[C@@]12CO[C@]3(O)[C@@H](O)[C@@H]1C(C)(C)CC[C@@H]2OS(=O)(=O)CCC | 1.33 µM | 5.52 µM | 14.7 µM | 1.97 µM | 19.1 µM | 5.66 µM | – | – | – | – | –
C=C1C(=O)[C@]23[C@H](OC(=O)CNC(=O)/C=C/C(=O)O)[C@@H]1CC[C@H]2[C@@]12CO[C@]3(O)[C@@H](O)[C@@H]1C(C)(C)CC[C@@H]2OC(C)=O | 2.6 µM | 2.78 µM | 2.6 µM | 0.84 µM | 1 µM | 0.93 µM | 64.9% | 69.9% | – | – | –
C=C1C(=O)[C@]23[C@H](OC(=O)CN)[C@@H]1CC[C@H]2[C@@]12CO[C@]3(O)[C@@H](O)[C@@H]1C(C)(C)CCC2=O | 20.6 µM | 20.9 µM | 28.4 µM | 24.8 µM | 30.3 µM | 19.1 µM | – | – | – | – | –
C=C1C(=O)[C@]23[C@H](OC(=O)CN)[C@@H]1CC[C@H]2[C@@]12CO[C@]3(O)[C@@H](O)[C@@H]1C(C)(C)CC[C@@H]2OS(=O)(=O)CCC | 16.3 µM | 15.9 µM | 24.7 µM | 19.8 µM | 20.2 µM | 21.7 µM | – | – | – | – | –
O=P1(N(CCCl)CCCl)NCCCO1 (stereo unspecified) [CYCLOPHOSPHAMIDE ANHYDROUS] | – | – | – | – | – | – | – | – | 54.3% | – | –
O=c1[nH]cc(F)c(=O)[nH]1 [FLUOROURACIL] | 10.8 µM | 16.4 µM | 13.2 µM | 21.4 µM | – | 8.73 µM | – | – | – | 14.4 µM | 73.5%
C=C1C(=O)[C@]23[C@H](O)[C@H]1CC[C@H]2[C@@]12CO[C@]3(O)[C@@H](O)[C@@H]1C(C)(C)CC[C@@H]2O [ORIDONIN] | 27.2 µM | 28.3 µM | 31.4 µM | 32.8 µM | 39.8 µM | 26.2 µM | 42.7% | 45.9% | – | – | –
